A short description of this series: Cleavage of PCL denatonium conjugate in collected saliva. In kind it is in vitro ADME, human. To be noted: agitation, mean ± s.d. The source says: Volunteers were enrolled for a cross-sectional study. One group had peri-implant disease (defined as peri-implantitis or mucositis), the other group were healthy volunteers (asymptomatic patients with at least one dental implant). Unstimulated saliva was collected using an absorbent device. Sulcus fluid was collected from the peri-implant zone using standardized, commercially available MMP-8 collection strips and sent to Dentognostics GmbH (Jena, Germany) for analysis (referred to as chair-side test). Determination of total MMP activity in saliva samples was conducted using the human MMP-8 activity assay (QuickZyme, Leiden, the Netherlands) according to the manufacturer’s instructions. Saliva samples from the cross-sectional study were incubated with D-CLAN3Q (ID #1c) in MMP-8 buffer and cleavage was analyzed by HPLC. Further details are given in the Supplementary Methods.
For the collection of sulcus fluid and saliva from peri-implant d iseased p atien ts and fro m health y volunteers, a cross-section al stud y was initiated with the patient group having either a mucositis or a per i-implantitis vs. health y control. […] In this comparative study, the ability of the sensor diagnostic was assessed to discriminate saliva collected fro m p atien ts with peri -imp lan t disease to as ymp to matic carriers of at least on e i mplant (referred to as healthy control). […]

Each structure is given as a SMILES string. Values joined by “and” are separate entries in the source; they are usually repeats but may differ in a detail not shown here. Equal values may be shown once. Where a SMILES comes first, the peptide text is derived from it. [ ]: non-standard residue; d: D form. The star is where a group is joined. X1 = CC[N+](CC)(CC(=O)Nc1c(C)cccc1C)Cc1cccc(C(=O)*)c1; Aha = [N-]=[N+]=NCC[C@H](N)C(=O)O

With `CC[C@H](C)[C@H](NC(=O)CNC(=O)[C@H](CCC(N)=O)NC(=O)[C@@H]1CCCN1C(=O)CNC(=O)c1cccc(C[N+](CC)(CC)CC(=O)Nc2c(C)cccc2C)c1)C(=O)N[C@@H](C)C(=O)NCC(=O)N[C@@H](CCC(N)=O)C(=O)N[C@@H](CCN=[N+]=[N-])C(=O)N[C@@H](CCC(N)=O)C(=O)O` [ID #1c] (X1-GPQGIAGQ[Aha]Q-OH), the “Cleavage in saliva, healthy subjects, 5-10 min” value (saliva of healthy volunteers (n = 14) 1:1 with 0.1 mg/mL peptide in MMP buffer pH 6.8-7.0, 37 °C, HPLC decrease of main peak) is 1.5 ± 0.8%. Moreover, under “saliva of patients with peri-implant disease (n = 19) 1:1 with 0.1 mg/mL peptide in MMP buffer pH 6.8-7.0, 37 °C, HPLC”, the “Cleavage in saliva, diseased subjects, 5-10 min” value was 4.2 ± 3.34% and < 5%.
